# Source: publication PMC10492782, “Exploiting the aggregation propensity of beta-lactamases to design inhibitors that induce enzyme misfolding” (Nature Communications, 2023)
# Test system: SHV beta-lactamase in E. coli SHV-11
# Experiment: Western blot of inclusion body fraction
# Type: cell-based, Escherichia coli
# Details: 12 μM peptide in PBS, 120 min
# Source text: Fig. 5 Induction of aggregation in cells. […] A single representative image is shown. […] A single representative image is shown. C SIM and brightfield images as in A, but for E. coli ATCC strain. […] A single representative image is shown. […] A single representative blot is shown. […] The corrected P-values were 0.6091, 0.0029, 0.0027, <0.0001, and 0.9992, from left to right. […] Statistics exactly as in E, but from 3 independent experiments. The corrected P-values were 0.8753, 0.9796, 0.0001, 0.0003, and 0.0003, from left to right. Source data are provided as a Source Data file.
# Overnight cultures of bacteria were centrifuged for 30 min at 4000 × g and cells were washed with physiological water (NaCl 0.9%). Bacterial cells were treated by peptide at the appropriate concentration for at least 2 h at 37 C. The bacterial pellets were washed with 10 mL buffer A (50 mM HEPES, pH 7.5, 300 mM NaCl, 5 mM β-mercaptoethanol, 1.0 mM EDTA) and centrifuged at 4 °C for 30 min at 4000 × g. […]
substance,measurement,value
Ac-RLTAFLHNRRPRLTAFLRQRR-NH2 [TEM3.2],"SHV enzyme in inclusion body fraction, western blot (in words)",accumulates in IBs
